In brackets after ≈: the same amount, converted by molar mass. Read-outs that look alike come from different tables or passages of the source.
Tests used:
HEK293 cells = assay: Alamar blue cytotoxicity, HEK293; assay type: cell-based, human; settings: 24 h, mean ± SD, n = 3, read-out: Toxicity on HEK293 cells
Procedure: (§1) The A549 human lung adenocarcinoma cells are derived from a patient and were kindly given to us by Dr. Georgia Konstatinidou (Pharmacology Institute, Bern University). HEK293T cells were obtained from ATCC (CRL-11268). A549 and HEK293 were cultured in an incubator at 37 °C with 5% CO2 in RPMI-1640 (Gibco) and DMEM (Gibco) containing 10% fetal bovine serum (Thermo Fisher), 100 I.U./mL penicillin, and 100 μg/mL streptomycin (Gibco).
(§2) The viability of the cells was assessed with an AlamarBlue assay (ThermoFisher). Cells were seeded into 96-well plates, 4000 cells/well (HEK293) and 8000 cells/well (A549), the day before the experiment. Cells were then treated with the increasing concentration of the compound and incubated for 24 h at 37 °C in the presence of 5% CO2. The next day, the medium was removed and replaced by a 10% AlamarBlue solution in full growth medium (DMEM or RPMI-1640). The cells were incubated for 3–5 h at 37 °C with 5% CO2 in a humidified atmosphere. The fluorescence was then measured on a Tecan Infinite M1000 Pro plate reader at λex 560 nm and λem 590 nm. The value was normalized according to the untreated cells.

Burkolderia cenocepacia = assay: microbe, parasite or virus in culture; settings: for MIC Burkolderia cenocepacia: MDR strain, MH broth pH 7.4, 16–20 h, 37 °C; for MIC B. cenocepacia: supplementary CSV
Procedure: (§3) Antimicrobial activity was determined for all peptides on E. coli W3110, P. aeruginosa PAO1, A. baumannii ATCC19606, K. pneumoniae NCTC418, and methicillin-resistant S. aureus COL and for selected peptides on P. aeruginosa PA14 and the polymyxin B-resistant derivatives PA14 4.13, PA14 4.18, and PA14 2P4 as well as the clinical isolates ZEM-1A and ZEM9A, K. pneumoniae OXA-48, Enterobacter cloacae, Stenotrophomonas maltophilia, B. cenocepacia, and Staphylococus epidermis. To determine the MIC, the broth microdilution method was used.[75] A single bacterial colony was grown in LB medium overnight at 37 °C and 180 rpm shaking. The compounds were prepared as stock solutions of 2 mg/mL in sterilized milliQ deionized water, added to the first well of 96-well sterile, polypropylene round-bottom microtiter plates (TPP, untreated, Corning Incorporated, Kennebunk, USA), and diluted serially by 1/2. […] The bacterial inoculum was prepared by measuring the absorbance of the overnight culture, which was diluted to concentration of the bacteria was quantified by measuring absorbance at 600 nm and diluted to an OD600 of 0.022 in MH medium pH 7.4 (Sigma-Aldrich, Buchs, Switzerland). The sample solutions (150 μL) were mixed with 4 μL of diluted bacterial suspension with a final inoculation of about 5 × 10^5 CFU. For each test, two columns of the plate were kept for sterility control (MH medium only) and growth control (MH medium with bacterial inoculum, no compound). […] The plates were incubated at 37 °C for 16–20 h under static conditions. 15 μL of 3-(4,5-dimethylthiazol-2-yl)-2,5-diphenyltetrazolium bromide (MTT)[76] (1 mg/mL in sterilized milliQ deionized water) was added to each well, and the plates were incubated at room temperature until MTT staining was completed. The MIC was defined as the lowest concentration of the dendrimer that inhibits the visible growth of the tested bacteria (yellow) with the unaided eye.

PA14 2P4 (pmrB) = assay: microbe, parasite or virus in culture; settings: supplementary CSV
Procedure: as §3

PA14 4.13 (phoQ) = assay: microbe, parasite or virus in culture; settings: supplementary CSV
Procedure: as §3

P. aeruginosa ZEM-1A = assay: microbe, parasite or virus in culture; settings: pH 7.4
Procedure: as §3

PA14 4.18 (pmrB) = assay: microbe, parasite or virus in culture; settings: supplementary CSV
Procedure: as §3

P. aeruginosa PA14 = assay: microbe, parasite or virus in culture; settings: for MIC PA14: MH broth pH 7.4, 16–20 h, 37 °C; for MIC P. aeruginosa PA14: supplementary CSV
Procedure: as §3

Enterobacter cloacae = assay: microbe, parasite or virus in culture; settings: pH 7.4
Procedure: as §3

E. coli W3110 = settings: MH broth pH 7.4, 16–20 h, 37 °C
Procedure: as §3

K. pneumoniae NCTC418 = system: K. pneumoniae NCTC418
Procedure: as §3

A. baumannii ATCC19606 = system: A. baumannii ATCC19606
Procedure: as §3

S. aureus COL MRSA = settings: for MIC S. aureus COL MRSA: MH broth pH 7.4, 16–20 h, 37 °C; for MIC S. aureus COL: supplementary CSV, ranges of Table 1 given as one number
Procedure: as §3

P. aeruginosa PAO1 = system: P. aeruginosa PAO1
Procedure: as §3

[1] = system: Stenotrophomonas maltophilia; assay: microbe, parasite or virus in culture; assay type: cell-based; settings: pH 7.4
Procedure: as §3

K. pneumoniae Oxa-48 = assay: MIC broth microdilution, K. pneumoniae Oxa-48; assay type: cell-based, Klebsiella pneumoniae; settings: MDR strain; MH broth pH 7.4, 16–20 h, 37 °C
Procedure: as §3

A549 cells = assay: Alamar blue cytotoxicity, A549; assay type: cell-based, human; settings: 24 h, mean ± SD, n = 3, read-out: Toxicity on A549 lung cancern cells
Procedure: as §1, §2

Staphylococcus epidermis = assay: MIC broth microdilution, Staphylococcus epidermis; assay type: cell-based; settings: pH 7.4
Procedure: as §3

S. aureus Newman = settings: for MIC S. aureus Newman: MH broth pH 7.4, 16–20 h, 37 °C; for MIC S. aureus Newmann: supplementary CSV
P. aeruginosa ZEM9A = assay: microbe, parasite or virus in culture; assay type: cell-based, Pseudomonas aeruginosa; settings: pH 7.4
Procedure: as §3

[2] = MH broth pH 7.4, 16–20 h, 37 °C
[3] = supplementary CSV, ranges of Table 1 given as one number

| Structure (SMILES) | IC50 (HEK293 cells) [µM] | MIC Burkolderia cenocepacia (Burkolderia cenocepacia) [µg/mL] | MIC B. cenocepacia (Burkolderia cenocepacia) [µg/mL] | MIC P. aeruginosaPA14 2P4 (PA14 2P4 (pmrB)) [µg/mL] | MIC P. aeruginosa PA14 4.13 (PA14 4.13 (phoQ)) [µg/mL] | MIC ZEM-1A (P. aeruginosa ZEM-1A) [µg/mL] | MIC P. aeruginosa PA14 4.18 (PA14 4.18 (pmrB)) [µg/mL] | MIC PA14 (P. aeruginosa PA14) [µg/mL] | MIC P. aeruginosa PA14 (P. aeruginosa PA14) [µg/mL] | MIC Enterobacter cloacae (Enterobacter cloacae) [µg/mL] | MIC E. coli W3110 (E. coli W3110) [µg/mL] | MIC K. pneumoniae NCTC418 (K. pneumoniae NCTC418; [2]) [µg/mL] | MIC K. pneumoniae NCTC418 (K. pneumoniae NCTC418; [3]) [µg/mL] | MIC A. baumannii ATCC19606 (A. baumannii ATCC19606; [2]) [µg/mL] | MIC A. baumannii ATCC19606 (A. baumannii ATCC19606; [3]) [µg/mL] | MIC S. aureus COL MRSA (S. aureus COL MRSA) [µg/mL] | MIC S. aureus COL (S. aureus COL MRSA) [µg/mL] | MIC P. aeruginosa PAO1 (P. aeruginosa PAO1; [2]) [µg/mL] | MIC P. aeruginosa PAO1 (P. aeruginosa PAO1; [3]) [µg/mL] | MIC Stenotrophomonas maltophilia [1] [µg/mL] | other results |
| --- | --- | --- | --- | --- | --- | --- | --- | --- | --- | --- | --- | --- | --- | --- | --- | --- | --- | --- | --- | --- | --- |
| CC(C)C[C@H](NC(=O)[C@H](CC(C)C)NC(=O)[C@H](CC(C)C)NC(=O)[C@H](CCCCN)NC(=O)[C@H](CC(C)C)NC(=O)[C@H](CC(C)C)NC(=O)[C@H](CCCCN)NC(=O)[C@H](CC(C)C)NC(=O)[C@H](CC(C)C)NC(=O)[C@H](CCCCN)NC(=O)[C@@H](N)CCCCN)C(N)=O [ln65] | 27 ± 5.4 | >64 | > 64 | 32 (≈ 24.2 µM) | 4 (≈ 3.03 µM) | 4 (≈ 3.03 µM) | 32 (≈ 24.2 µM) | 2 to 4 | 3 (≈ 2.27 µM) | 2 (≈ 1.51 µM) | 4 (≈ 3.03 µM) | 4 (≈ 3.03 µM) | 4 (≈ 3.03 µM) | 2 to 4 | 3 (≈ 2.27 µM) | 4 (≈ 3.03 µM) | 4 (≈ 3.03 µM) | 2 to 4 | 3 (≈ 2.27 µM) | 2 (≈ 1.51 µM) | MIC K. pneumoniae Oxa-48 (K. pneumoniae Oxa-48): 2 µg/mL (≈ 1.51 µM); IC50 (A549 cells): 20 ± 0.9 µM; MIC Staphylococcus epidermis (Staphylococcus epidermis): 2 µg/mL (≈ 1.51 µM); MIC S. aureus Newman (S. aureus Newman): 2 µg/mL (≈ 1.51 µM); MIC S. aureus Newmann (S. aureus Newman): 2 µg/mL (≈ 1.51 µM); MIC ZEM9A (P. aeruginosa ZEM9A): 4 µg/mL (≈ 3.03 µM) |
| CC(C)C[C@H](NC(=O)[C@H](CC(C)C)NC(=O)[C@H](CC(C)C)NC(=O)[C@H](CCCCN)NC(=O)[C@H](CC(C)C)NC(=O)[C@H](CC(C)C)NC(=O)[C@@H](CCCCN)NC(=O)[C@H](CC(C)C)NC(=O)[C@H](CC(C)C)NC(=O)[C@@H](CCCCN)NC(=O)[C@@H](N)CCCCN)C(N)=O [HP3, KkLLkLLKLLL] | 69 ± 2.6 | >64 | > 64 | 32 (≈ 24.2 µM) | 8 (≈ 6.05 µM) | 2 (≈ 1.51 µM) | 32 (≈ 24.2 µM) | 4 (≈ 3.03 µM) | 4 (≈ 3.03 µM) | 4 (≈ 3.03 µM) | 2 (≈ 1.51 µM) | 8 (≈ 6.05 µM) | 8 (≈ 6.05 µM) | 2 (≈ 1.51 µM) | 2 (≈ 1.51 µM) | 2 to 4 | 3 (≈ 2.27 µM) | 4 (≈ 3.03 µM) | 4 (≈ 3.03 µM) | 4 (≈ 3.03 µM) | MIC K. pneumoniae Oxa-48 (K. pneumoniae Oxa-48): 4 µg/mL (≈ 3.03 µM); IC50 (A549 cells): 5.4 ± 4.4 µM; MIC Staphylococcus epidermis (Staphylococcus epidermis): 4 µg/mL (≈ 3.03 µM); MIC S. aureus Newman (S. aureus Newman): 2 µg/mL (≈ 1.51 µM); MIC S. aureus Newmann (S. aureus Newman): 2 µg/mL (≈ 1.51 µM) |
